Source: publication PMC11672801, “Synthesis of Temporin-SHa Retro Analogs with Lysine Addition/Substitution and Antibiotic Conjugation to Enhance Antibacterial, Antifungal, and Anticancer Activities” (Antibiotics, 2024)
Values after ≈ are worked out from the molar mass of the structure shown. Like-named read-outs stand apart in the source and are kept apart here. Where a SMILES comes first, the peptide text is derived from it. [ ]: non-standard residue; d: D form. The star is where a group is joined. Levofloxacinoyl = C[C@H]1COc2c(N3CCN(C)CC3)c(F)cc3c(=O)c(C(=O)*)cn1c23; βAla = NCCC(=O)O

Assays:
S. aureus (NCTC 13277) = details: >99% inhibition of growth, MH broth, 20-22 h, 37 °C
[1] = system: human red blood cells (RBC); experiment: Hemolytic assay; format: cell-based
Experimental: For the hemolytic assay, fresh human blood (2 mL) was obtained from a healthy donor in EDTA tube while following the protocol of approval from the Independent Ethics Committee of ICCBS (approval number ICCBS/IEC-047-HB-2019/Protocol/1.0). The blood was centrifuged and upper supernatant plasma was removed. The cell pellets were washed with sterile PBS three times. The washed blood cells were then diluted 25 times to make 4% concentration of the initial blood cells. Red blood cells (500 µL) were treated with increasing concentrations of analogs, with triton X-100 at 0.1% being used as positive control giving 100% hemolysis. After 1 h of incubation at 37 °C, tubes were centrifuged at 800 rpm for 5 min to pellet down red blood cells. After centrifugation, 200 µL of supernatant were transferred into a 96 well plate and the absorbance was recorded at 576 nm using a microplate reader (MultiSkan Go, ThermoScientific). Then, the following formula was applied to calculate percent hemolysis: % Hemolysis=O.D of test sample−O.D of PBS control/O.D of Tritox×positive control−O.D of PBS control×100

E. coli (ATCC 25922) = experiment: Antibacterial broth microdilution MIC assay; format: cell-based, Escherichia coli; details: >99% inhibition of growth, MH broth, 20-22 h, 37 °C
Experimental: (§1) The antibacterial activity of peptide analogs was tested against different bacterial strains, i.e., Salmonella enterica subsp. enterica serotype Typhimurium or Salmonella typhi (ATCC 14028), Staphylococcus aureus (NCTC 13277), Bacillus subtilis (ATCC 23857), Escherichia coli (ATCC 25922), and Pseudomonas aeruginosa (ATCC 10145). These strains were obtained from the microbial bank of Dr. Panjwani Center for Molecular Medicine and Drug research (PCMD), International Center for Chemical and Biological Sciences (ICCBS), University of Karachi. Colonies of these bacterial strains were grown in respective agar media, then inoculated in Mueller Hinton (MH) broth (Oxoid, UK) and incubated at 37 °C overnight. The peptide solutions were first diluted 1 in 100 (from the stock solution at 20 mM) and then further two-fold dilution in MH broth in a sterile 96-well plate was performed, resulting in 100 µL of broth containing increasing concentrations of analogs. Bacteria in their exponential growth phase were diluted in MH broth, and 100 µL of this suspension was added in each well. […] Then, these plates were incubated at 37 °C for 20–22 h. MIC (Minimum Inhibitory Concentration) values were determined as the concentrations of peptides causing >99% inhibition of bacterial growth.

B. subtilis (ATCC 23857) = experiment: Antibacterial broth microdilution MIC assay; format: cell-based, Bacillus subtilis; details: >99% inhibition of growth, MH broth, 20-22 h, 37 °C
Experimental: as §1

[2] = system: P. aeruginosa (ATCC 10145); experiment: Antibacterial broth microdilution MIC assay; format: cell-based, Pseudomonas aeruginosa; details: >99% inhibition of growth, MH broth, 20-22 h, 37 °C
Experimental: as §1

[3] = system: Human breast cancer (MCF-7) cells; experiment: cells; format: cell-based
Experimental: (§2) Human breast cancer (MCF-7) and human cervical cancer (HeLa) cells were obtained from the cell culture bank of PCMD in ICCBS, University of Karachi. These cells were maintained in Dulbecco’s Modified Eagle Medium (DMEM), supplemented with 10% fetal bovine serum, and incubated at 37 °C and 5% CO2. The antiproliferative activity of the samples was determined by a MTT assay. Briefly, the cells were washed with PBS and trypsinized. After determination of the cell number using Malassez cell counting, 100 µL of the cell suspension were seeded in a 96-well plate at the density of 6000 cells/well and incubated at 37 °C and 5% CO2. After 24 h, the cells were treated with increasing concentrations of analogs. The next day, media was removed and 200 µL of MTT dye (0.5 mg/mL) was added in each well and incubated for 3 h at 37 °C in 5% CO2 incubator. Then, the media was removed and 100 µL of DMSO was added to solubilize formazan crystals. After one minute of shaking, the absorbance was recorded at 540 nm in microplate reader (Multiskan GO, ThermoScientific, Waltham, MA, USA). Finally, the percent inhibition of proliferation was calculated using the following formula: % inhibition of proliferation=O.D of treated well−O.D of media control/O.D of untreated control−O.D of media control×100

[4] = system: human cervical cancer (HeLa) cells; experiment: cells; format: cell-based; details: 24 h
Experimental: as §2

C. albicans (ATCC 36082) = experiment: microbe, parasite or virus in culture
Experimental: Candida albicans (ATCC 36082) was cultured on Sabourad Dextrose Agar (SDA). A single colony was inoculated in Sabouraud Dextrose Broth (SDB) medium and grown overnight at 37 °C while shaking. The next day, the susceptibility of C. albicans was tested using a broth microdilution assay. Peptide analogs were diluted in SDB media by two-fold dilution, resulting in 100 µL of medium containing increasing concentrations of analogs. The overnight culture (turbidity at OD600 = 1) was 1000× diluted in SDB. Then 100 µL of this suspension was added to each well, resulting in a final 200 µL suspension containing 2–4 × 10^5 CFU/mL. The plate was incubated at 37 °C for 24 h. The next day, MIC (Minimum Inhibitory Concentration) values were determined as the concentrations of peptides causing > 99% inhibition of yeast growth.

[5] = Circular dichroism secondary structure analysis (Bestsel) in 20 mM SDS; format: physicochemical; details: CD, 15 µM peptide in 20 mM SDS, 22 °C
Experimental: The far-ultraviolet circular dichroism (CD) spectra were recorded using a JASCO J-810 spectropolarimeter (Jasco, Tokyo, Japan), with measurements taken in a quartz cuvette with a 10 mm path length. The temperature was kept at 22 °C, and the instrument was calibrated with D-(+)-10-camphorsulfonic acid. Peptides were dissolved in 20 mM SDS to a final concentration of 15 µM. The CD spectra were collected over a wavelength range of 190 to 260 nm with a bandwidth of 2 nm. Each spectrum was recorded with ten consecutive scans at a rate of 50 nm/min, and the baseline was obtained under identical conditions. Secondary structures, i.e., the percentage of alpha-helix and other secondary structures, were quantified from CD data using Bestsel software (https://bestsel.elte.hu/index.php, accessed on 22 October 2024).

[6] = >99% inhibition of growth, MH broth, 20-22 h, 37 °C
[7] = MTT, 24 h exposure, read-out: IC50 on Breast Cancer (MCF-7)

SMILES: CC[C@H](C)[C@H](NC(=O)[C@@H](NC(=O)CNC(=O)[C@H](CCSC)NC(=O)[C@H](CC(C)C)NC(=O)[C@H](CCCCN)NC(=O)[C@H](CCCCN)NC(=O)[C@H](CC(C)C)NC(=O)[C@H](Cc1ccccc1)NC(=O)CCNC(=O)c1cn2c3c(c(N4CCN(C)CC4)c(F)cc3c1=O)OC[C@@H]2C)C(C)C)C(=O)N[C@H](C)C(=O)N[C@@H](CO)C(=O)N[C@@H](CC(C)C)C(=O)N[C@@H](Cc1ccccc1)C(N)=O [RLFP-4 (8), LF-β-Ala-Phe^1-Leu^2-Lys^3-Lys^4-Leu^5-Met^6-Gly^7-Val^8-Ile^9-D-Ala^10-Ser^11-Leu^12-Phe^13-NH2] ({Levofloxacinoyl-βAla}-FLKKLMGVI[dA]SLF-NH2)
- MIC S. aureus (NCTC 13277) (S. aureus (NCTC 13277)): 6.25 µM (≈ 11.8 µg/mL)
- HC50 on Human Red Blood Cells (RBCs) ([1]; red cells of human, 1 h): 4.5 µM
- MIC S. typhi (ATCC 14028) (S. typhi (ATCC 14028); ATCC 14028): 50 µM (≈ 94 µg/mL)
- MIC (E. coli (ATCC 25922)): 25 µM (≈ 47 µg/mL)
- MIC (B. subtilis (ATCC 23857)): 1.56 µM (≈ 2.93 µg/mL)
- MIC [2]: 12.5 µM (≈ 23.5 µg/mL)
- IC50 ([3]; 24 h): 23.8 µM
- IC50 [4]: 15.5 µM
- MIC C. albicans (ATCC 36082) (C. albicans (ATCC 36082); ATCC 36082, 24 h): >200 µM

SMILES: CC[C@H](C)[C@H](NC(=O)[C@@H](NC(=O)CNC(=O)[C@H](CCSC)NC(=O)[C@H](CC(C)C)NC(=O)CNC(=O)[C@H](CCCCN)NC(=O)[C@H](CC(C)C)NC(=O)[C@@H](N)Cc1ccccc1)C(C)C)C(=O)N[C@H](C)C(=O)N[C@@H](CO)C(=O)N[C@@H](CC(C)C)C(=O)N[C@@H](Cc1ccccc1)C(N)=O [RNST-2 (2), H-Phe^1-Leu^2-Lys^3-Gly^4-Leu^5-Met^6-Gly^7-Val^8-Ile^9-D-Ala^10-Ser^11-Leu^12-Phe^13-NH2] (H-FLKGLMGVI[dA]SLF-NH2)
- MIC S. aureus (NCTC 13277) (S. aureus (NCTC 13277)): 3.12 µM (≈ 4.35 µg/mL)
- HC50 on Human Red Blood Cells (RBCs) ([1]; red cells of human, 1 h): 13.8 µM
- MIC S. typhi (ATCC 14028) (S. typhi (ATCC 14028); [6]): 50 µM (≈ 69.7 µg/mL)
- MIC (E. coli (ATCC 25922)): 50 µM (≈ 69.7 µg/mL)
- MIC (B. subtilis (ATCC 23857)): 1.56 µM (≈ 2.18 µg/mL)
- MIC [2]: 200 µM (≈ 279 µg/mL)
- Antiparallel (%) [5]: 17.9%
- Helix (%) [5]: 62%
- Others (%) [5]: 0.00%
- Parallel (%) [5]: 20.1%
- Turn (%) [5]: 0.00%
- IC50 [3, 7]: 53 µM
- IC50 [4]: 60 µM
- MIC C. albicans (ATCC 36082) (C. albicans (ATCC 36082); >99% inhibition of yeast growth, SDB, 24 h, 37 °C): 15.6 µM (≈ 21.8 µg/mL)

SMILES: CC[C@H](C)[C@H](NC(=O)[C@@H](NC(=O)CNC(=O)[C@H](CCSC)NC(=O)[C@H](CC(C)C)NC(=O)[C@H](CCCCN)NC(=O)[C@H](CCCCN)NC(=O)[C@H](CC(C)C)NC(=O)[C@@H](N)Cc1ccccc1)C(C)C)C(=O)N[C@H](C)C(=O)N[C@@H](CO)C(=O)N[C@@H](CC(C)C)C(=O)N[C@@H](Cc1ccccc1)C(N)=O [RSP-4 (7), H-Phe^1-Leu^2-Lys^3-Lys^4-Leu^5-Met^6-Gly^7-Val^8-Ile^9-D-Ala^10-Ser^11-Leu^12-Phe^13-NH2] (H-FLKKLMGVI[dA]SLF-NH2)
- MIC S. aureus (NCTC 13277) (S. aureus (NCTC 13277)): 50 µM (≈ 73.3 µg/mL)
- HC50 on Human Red Blood Cells (RBCs) [1]: > 100 µM
- MIC S. typhi (ATCC 14028) (S. typhi (ATCC 14028); [6]): 100 µM (≈ 147 µg/mL)
- MIC (E. coli (ATCC 25922)): 50 µM (≈ 73.3 µg/mL)
- MIC (B. subtilis (ATCC 23857)): 12.5 µM (≈ 18.3 µg/mL)
- MIC [2]: 200 µM (≈ 293 µg/mL)
- Antiparallel (%) [5]: 22.1%
- Helix (%) [5]: 56.8%
- Others (%) [5]: 13.6%
- Parallel (%) [5]: 0.00%
- Turn (%) [5]: 7.6%
- IC50 [3, 7]: 39.9 µM
- IC50 [4]: 56.9 µM
- MIC C. albicans (ATCC 36082) (C. albicans (ATCC 36082); ATCC 36082, 24 h): 100 µM (≈ 147 µg/mL)
